# Test results reported in patent US20100021938A1, “Diagnosis and Prediction of Alzheimer's Disease” (priority 2008, published 2010).
# Key:
# human platelets = test: sAPPα release by human platelets, Western blot of supernatant (antibody 6E10); type: cell-based; conditions: for sAPPα release by washed platelets: collagen up to 5 μg/ml, ADP up to 25 μM
# Method: FIG. 2: sAPPα release is mediated through G protein-coupled receptors. Human platelets (600,000 cells/μl) were incubated with 20 μM arachidonic acid (AA), U46,619 (500 nM), PAR1-AP (100 μM), PAR4-AP (200 μM) or thrombin (1 U/ml) for 1 h. The cells were then pelleted at 10,000×g for 15 min and the levels of sAPPα in the supernatant were determined by Western blot analysis using the antibody 6E10 (Calbiochem).
# FIG. 3: The effect of arachidonic acid is mediated by the TP receptor. Left panel: Human platelets were incubated by increasing concentrations of U46,619 and sAPPa was analyzed in the supernatant as described for FIG. 2. Right panel: Human platelets were pre-incubated for 15 min with increasing concentration of an antagonist of the TP receptor, SQ29,548, prior addition of 7.5 μM of arachidonic acid. sAPPα release was analyzed by western blot.
# FIG. 4: Activation of PGI2 receptor inhibits sAPPa release triggered by U46,619. Human platelets were pre-incubated for 30 min with increasing concentrations of carbaprostacylin prior addition of 500 nM of U46,619. After 1 h the levels of sAPPa in the supernatant were determined by western blot analysis. Protein bands were scanned and the pixels integrated. sAPPa release is expressed as a percent of maximum where no CP was added.
# FIG. 5: PGE2 potentiates the effect of a sub-efficacious concentration of arachidonic acid. Washed platelets were pre-incubated for 2 min with increasing concentrations of PGE2 or vehicle prior addition of 0.5 μM of arachidonic acid. After 1 h, sAPPα release in the supernatant was determined by Western blot analysis as described in FIG. 2. Protein bands were scanned and the pixels integrated. sAPPα release is expressed as a percent of the maximum obtained with 7.5 nM PGE2 and 0.5 μM arachidonic acid.
# Secretion of sAPPα has been analyzed in human platelets in response to various agonists.
# [1] = biological target: T1, M1 muscarinic receptor (M1mAChR) (Homo sapiens, UniProt P11229); conditions: patients with AD (Nitsch et al., 2000); cited from earlier work
# T1 construct: host or cells: patients with AD (endogenous receptor, in vivo)
# T1 sequence (P11229 1-460): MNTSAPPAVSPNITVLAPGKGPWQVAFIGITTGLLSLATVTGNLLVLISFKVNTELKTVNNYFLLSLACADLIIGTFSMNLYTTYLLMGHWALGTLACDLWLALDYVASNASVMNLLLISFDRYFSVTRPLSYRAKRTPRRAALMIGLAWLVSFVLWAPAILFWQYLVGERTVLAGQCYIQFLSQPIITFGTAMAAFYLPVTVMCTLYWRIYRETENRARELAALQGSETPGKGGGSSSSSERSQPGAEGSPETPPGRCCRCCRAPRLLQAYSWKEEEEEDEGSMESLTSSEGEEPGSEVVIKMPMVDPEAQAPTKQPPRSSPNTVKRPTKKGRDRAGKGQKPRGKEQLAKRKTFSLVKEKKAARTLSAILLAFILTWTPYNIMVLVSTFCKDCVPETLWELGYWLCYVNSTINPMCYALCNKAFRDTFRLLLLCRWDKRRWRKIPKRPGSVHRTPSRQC
# 3xTg-AD mice = conditions: cited from earlier work
# human washed platelets = test: sAPPα and sAPPβ released from activated human washed platelets, LC/ESI/MS/MS; type: cell-based; conditions: 300 μl platelets at 600,000 cells/μl activated with 500 nM
# Method: FIG. 10: Detection of the two sAPP isoforms released from human platelets. 300 μl of human washed platelets at 600,000 cells/μl were activated with 500 nM U46,619. sAPPs released in the medium were immunoprecipitated and digested with trypsin. The peptides were analyzed as described above. The product ions y6 and y4 were monitored for TEEISEVK and MDAEFR, respectively. Chromatograms of the two product ions are shown for each sAPP isoform.
# Internal standards for each peptide were obtained by incorporation of a [^13C] labeled amino acid. Human washed platelets (600,000 cells/Ml, 300 μl) were activated with 500 nM of U46,619 and the release of sAPPs was analyzed after centrifuging the cells at 2,000×g for 15 min. After immunoprecipitation of the sAPPs and digestion with trypsin, 150 pg of MDAE[^13C]-FR and TEE[^13C]-ISEVK were added as internal standards and the samples were analyzed by LC/ESI/MS/MS using the LCQ Deca XP ion trap mass spectrometer (Thermo Scientific, Waltham, Mass.).
# [2] = 3xTg-AD mice (Caccamo et al., 2006)
molecule,measurement,setting,value
Nc1ncnc2c1ncn2[C@@H]1O[C@H](COP(=O)(O)OP(=O)(O)O)[C@@H](O)[C@H]1O [ADP],sAPPα release by washed platelets,human platelets,had no effect on sAPPα release
CC1OC2(CS1)CN1CCC2CC1 (centres unmarked) [AF102B],levels of amyloid in cerebrospinal fluid,[1],decrease the levels of amyloid in cerebrospinal fluid
CC[C@@H]1SC2(CCN(C)CC2)NC1=O [AF267B],APP processing via the β-secretase pathway,3xTg-AD mice; [2],decreases APP processing via the β-secretase pathway
same,development of amyloid pathology,3xTg-AD mice; [2],decreases development of amyloid pathology
same,expression of ADAM 17/TACE,"3xTg-AD mice; Caccamo et al., 2006",increases expression of ADAM 17/TACE
CCCCC[C@H](O)/C=C/[C@H]1[C@H](O)CC(=O)[C@@H]1C/C=C\CCCC(=O)O [PGE2],potentiation of sAPPα release by sub-efficacious arachidonic acid,"human platelets; concentrations higher than 10 nM, with 0.5 μM arachidonic acid",this potentiation effect was reversed
same,"sAPPα release, compound by itself","human platelets; highest concentration used, without arachidonic acid",had no effect on sAPPα release
same,potentiation of sAPPα release by sub-efficacious arachidonic acid,"human platelets; low nanomolar concentrations, pre-incubated 2 min prior to 0.5 μM arachidonic acid, 1 h",potentiates sAPPα release
same,concentration giving maximum sAPPα release with 0.5 μM arachidonic acid,"human platelets; washed platelets, 0.5 μM arachidonic acid, 1 h",7.5 nM
"O=C(O)CCC/C=C\C[C@@H]1[C@H](CNNC(=O)Nc2ccccc2)[C@H]2CC[C@@H]1O2 [SQ29,548]",effect on sAPPα release triggered by arachidonic acid,human platelets; pre-incubated 15 min with increasing concentrations prior to 7.5 μM arachidonic acid,antagonized
"CCCCC[C@H](O)/C=C/[C@@H]1[C@@H](C/C=C\CCCC(=O)O)[C@H]2CO[C@@H]1C2 [U46,619]",sAPPα release in response to agonist,"human platelets; human platelets 600,000 cells/μl, 1 h incubation, U46,619 500 nM, PAR1-AP 100 μM, PAR4-AP 200 μM",gave the same response as 20 μM of arachidonic acid
same,concentration giving maximal response of sAPPα release,"human platelets; human platelets, increasing concentrations",500 nM
same,amount of sAPPα released,human washed platelets,45 pg
same,amount of sAPPβ released,human washed platelets,41 pg
CCCCC/C=C\C/C=C\C/C=C\C/C=C\CCCC(=O)O [arachidonic acid],concentration giving maximal effect on sAPPα release,human platelets; human platelets,7.5 µM
CCCCC[C@H](O)/C=C/[C@@H]1[C@H]2C/C(=C/CCCC(=O)O)C[C@H]2C[C@H]1O [carbaprostacyclin],"effect on sAPPα release triggered by U46,619","human platelets; pre-incubated 30 min with increasing concentrations prior to 500 nM U46,619, 1 h","antagonized in a dose-dependent manner the effect of U46,619"
collagen,sAPPα release by washed platelets,human platelets,failed to trigger release of sAPPα
